Experimental findings from patent US4638088A, “Pesticidal biphenylyloxy and biphenylylalkoxy aryl acyl urea compounds” (Union Carbide Corporation, priority 1984, dated 1987) are described below.

As usually defined, the LC50 is the concentration lethal to half of the exposed cells or organisms.

Structures are written as SMILES. Converted amounts (≈) assume the structure as drawn. Where two headings read alike, the source gives them in different places.

One test concerns Heliothis zea. Nature of the test: Tobacco Budworm and Cotton Bollworm Leaf Spray Bait Test (cotton bollworm). It counts as in vivo. To be noted: Helicoverpa zea, 120 h, read-out: LC50 values, Heliothis Zea. The procedure: (§1) Suspension of the test compounds were prepared by dissolving one gram of compound in 50 milliliters of acetone in which had been dissolved 0.1 gram (10 percent of the weight of compound) of an alkylphenoxy polyethoxyethanol surfactant, as an emulsifying or dispersing agent. The resulting solution was mixed into 150 milliliters of water to give roughly 200 milliliters of a suspension containing the compound in finely divided form. The thus-prepared stock suspension contained 0.5 percent by weight of compound. The test concentrations in parts per million by weight employed in the tests described hereinbelow were obtained by appropriate dilutions of the stock suspension with water. Certain of the test compounds were also prepared by dissolving 375 mg of compound in 7.5 ml of dimethylformamide. Fifteen milliliters of acetone containing 37.5 mg (10 percent of the weight of test compound) of an alkylphenoxy polyethoxyethanol surfactant, as a wetting/emulsifying/dispersing agent was added to the dimethylformamide solution. Fifty-two and one-half milliliters of water wasa mixed into the dimethylformamide-acetone mixture to give roughly 75 ml of a suspension containing the compound in solution or in finely divided form. The thus prepared stock suspension contained 0.5 percent by weight of compound. The test procedures were as follows:
(§2) Second instar larvae of the tobacco budworm (weighing about 4.5 mg) (Heliothis virescens, F.) and the cotton bollworm (weighing about 2.5 mg) (Heliothis zea, (Boddie)), obtained commercially and reared on artificial diet at a temperature of 80°±5° F. and a relative humidity of 50±5 percent, constituted the test insects.
(§3) Using a procedure similar to the above, but substituting cotton plants for snapbeans, treated and dried cotton leaves were introduced into 9 cm Petri dishes which were organized into groups of 10-dish sets. One randomly selected larvae was introduced into each dish of a ten dish set and the dishes were closed. The closed dishes were labelled and held at 80°±5° F. for five days. Larvae which were unable to move the length of the body, even upon stimulation, were considered dead. Percent mortality was recorded for various concentration levels. LC50 or concentration required to kill 50 percent of the larvae was determined from the mortality figures.

A further test has as its system Heliothis virescens. Nature of the test: Tobacco Budworm and Cotton Bollworm Leaf Spray Bait Test (tobacco budworm). The format is in vivo. To be noted: 120 h, read-out: LC50 values, Heliothis Virescens. The procedure: as §1, §2, §3
A further test deals with two-spotted mite. Nature of the test: Mite Larvacidal Test Method. To be noted: Tetranychus urticae, 144 h, two-spotted mite larvae, five to six days, read-out: Mortality Rating at 500 ppm, Larvae. The format is in vivo. The procedure: Then the larvae are transferred to bean plants 6-8 inches in height. A sufficient number of larvae for testing (50-100) were transferred from TEPP treated leaves to the fresh plants in 24 hours.
Infested Tendergreen bean plants are placed on a revolving turntable. Test compounds are formulated with DMF, acetone, and a 3 to 1 mixture of Triton 172 and 152 (alkylphenoxy polyethoxyethanol surfactant mixture), respectively and then diluted in water to appropriate concentrations of chemical for application to the infested plants by use of a DeVilbiss spray gun with air pressure set at 40 pounds. The volume of 100 milliliters is sufficient to wet the plants to run off. A blank formulation is used for the control.
The treated plants are held at 80°±5° F. and 50±5 percent relative humidity for a period of five to six days, when mortality counts of the larvae are made.

The test system of a further test is Mexican bean beetle. Nature of the test: Mexican Bean Beetle Leaf Spray Test. It counts as in vivo, Epilachna varivestic. The conditions noted are these: Epilachna varivestis, 120 h, Mexican Bean Beetle larvae, five days, read-out: Activity at 500 ppm, MBB. The procedure: as §1
Fourth instar larvae of the Mexican bean beetle (Epilachna varivestic, Muls.), reared on Tendergreen bean plants at a temperature of 80°±5° F. and 50±5 percent relative humidity, were the test insects. For certain of the tests second instar larvae (weighting about 6 mg) of the Mexican bean beetle (Epilachna varaivestis, Muls.), reared on Sieva Pole lime bean plants at a temperature of 80°±5° F. and 50±5 percent relative humidity, were the test insects.
The test compounds were formulated by diluting the stock suspension with water to give a suspension containing 500 parts of test compound per million parts of final formulation. Potted Tendergreen bean plants of standard height and age were placed on a revolving turntable and sprayed with 100-110 milliliters of test compound formulation by use of a DeVilbiss spray gun set at 40 psig air pressure. This application, which lasted 25 seconds, was sufficient to wet plants to run-off. As a control, 100-110 milliliters of a water-acetone-emulsifier solution containing no test compound was also sprayed on infested plants. When dry, the paired leaves were separated and each was placed in a 9 centimeter Petri dish lined with moistened filter paper. Five randomly selected larvae were introduced into each dish, and the dishes were closed. The closed dishes were labeled and held at a temperature of 80°±5° F., for five days. Although the larvae could easily consume the leaf within 24 to 48 hours, no more food was added. Larvae which were unable to move the length of the body, even upon stimulation, were considered dead. Percent mortality was recorded for various concentration levels.

Another test has as its system southern armyworm. Nature of the test: Southern Armyworm Leaf Spray Bait Test. The format is in vivo. The conditions noted are these: Spodoptera eridania, 120 h, read-out: Activity at 500 ppm, SAW, 500 ppm; Southern Armyworm larvae; up to five days. On the procedure: as §1
Larvae of the southern armyworm (Spodoptera eridania, (Cram.), reared on Tendergreen bean plants at a temperature of 80°±5° F. and a relative humidity of 50±5 percent, constituted the test insects.
Potted Tendergreen bean plants of standarad height and age were placed on a revolving turntable and sprayed with 100-110 milliliters of test compound formulation by use of a DeVilbiss spray gun set at 40 psig air pressure. This application, which lasted 25 seconds, was sufficient to wet plants to run-off. As a control, 100-110 milliliters of a water-acetone-emulsifier solution containing no test compound was also sprayed on infested plants. When dry, the paired leaves were separated and each one was placed in a 9 centimeter Petri dish lined with moistened filter paper. Five randomly selected larvae were introduced into each dish and the dishes were closed. The closed dishes were labeled and held at 80°-85° F. for up to five days. Although the larvae could easily consume the whole leaf within twenty-four hours, no more food was added. Larvae which were unable to move the length of the body, even upon stimulation by prodding, were considered dead. Percent mortality was recorded for various concentration levels.

[1] abbreviates: Heliothis Zea, second instar larvae, five days.

Take `O=C(NC(=O)c1c(F)cccc1F)Nc1cc(Cl)c(Oc2cccc3ccccc23)c(Cl)c1` [Comparative Example K, reference compound]: the LC50 was found to be 30 µg/mL (≈ 61.6 µM) with Heliothis zea (setting [1]) and 500 µg/mL (≈ 1030 µM) in the test on Heliothis virescens.

`Cc1cc(NC(=O)NC(=O)c2ccccc2Cl)c(C)c(Cl)c1Oc1ccccc1-c1ccccc1` [Example 37]: the figures for the LC50 in the test with Heliothis zea (setting [1]) and in the test with Heliothis virescens were 1.7 µg/mL (≈ 3.36 µM) and 4 µg/mL (≈ 7.91 µM), respectively.

With `O=C(NC(=O)c1c(F)cccc1F)Nc1ccc(Cl)cc1` [Comparative Example A, reference compound], the values for the LC50 in the test with Heliothis zea and in the test with Heliothis virescens were 500 µg/mL (≈ 1610 µM) and 31 µg/mL (≈ 99.8 µM), respectively.

Regarding `Cc1cc(NC(=O)NC(=O)c2c(F)cccc2Cl)c(C)c(Cl)c1Oc1ccccc1-c1ccccc1` [Example 40], the mortality at 500 ppm in the test with two-spotted mite fell in the range of 71 to 100%.

For `Cc1cc(NC(=O)NC(=O)c2c(F)cccc2F)c(C)c(Cl)c1Oc1ccc(Cl)cc1-c1ccccc1` [Example 38], the LC50 came out at 1.6 µg/mL (≈ 2.96 µM) with Heliothis zea (setting [1]) and 1.9 µg/mL (≈ 3.51 µM) in the test with Heliothis virescens.

As for `O=C(NC(=O)c1c(F)cccc1F)Nc1cc(Cl)c(OCc2ccccc2-c2ccccc2)c(Cl)c1` [Example 39], the figures for the LC50 in the test on Heliothis zea (setting [1]) and with Heliothis virescens were 5 µg/mL (≈ 9.48 µM) and 16 µg/mL (≈ 30.3 µM), respectively.

Turning to `Cc1cc(NC(=O)NC(=O)c2ccccc2Cl)c(C)c(Cl)c1Oc1ccc(-c2ccccc2)cc1Cl` [Example 1, 1-(2-chlorobenzoyl)-3-[2,5-dimethyl-3-chloro-4-(2-chloro-4-phenylphenoxy)phenyl]urea], the mortality at 500 ppm with Mexican bean beetle and in the test on southern armyworm was 71 to 100% in each case.

`Cc1cc(Oc2ccccc2-c2ccccc2)c(Cl)cc1NC(=O)NC(=O)c1ccccc1Cl` [Example 21]: the mortality at 500 ppm in the test on Mexican bean beetle and in the test on southern armyworm was 71 to 100% throughout.

Take `O=C(NC(=O)c1ccccc1Cl)Nc1cc(Cl)c(OCc2ccccc2-c2ccccc2)c(Cl)c1` [Example 2, 1-(2-chlorobenzoyl)-3-[3,5-dichloro-4-(2-phenylphenylmethoxy)phenyl]urea]: the mortality at 500 ppm with Mexican bean beetle and with southern armyworm was 71 to 100% in each case.

For `Cc1cc(NC(=O)NC(=O)c2c(F)cccc2Cl)c(C)c(Cl)c1Oc1ccc(-c2ccccc2)cc1Cl` [Example 16], the mortality at 500 ppm in the test with Mexican bean beetle and in the test with southern armyworm was 71 to 100% each time.

Take `Cc1cc(NC(=O)NC(=O)c2ccccc2F)c(C)c(Cl)c1Oc1ccc(Cl)cc1-c1ccccc1` [Example 18]: the mortality at 500 ppm in the test on Mexican bean beetle and in the test on southern armyworm was 71 to 100% each time.

In the case of `Cc1cc(NC(=O)NC(=O)c2c(F)cccc2F)c(C)c(Cl)c1Oc1ccc(Cl)cc1-c1ccccc1` [Example 20], the mortality at 500 ppm with Mexican bean beetle and in the test with southern armyworm was 71 to 100% each time.

As to `Cc1cc(NC(=O)NC(=O)c2c(F)cccc2F)c(C)c(Cl)c1Oc1ccccc1-c1ccccc1` [Example 36], the values for the LC50 in the test with Heliothis zea (setting [1]) and with Heliothis virescens were 2.2 µg/mL (≈ 4.34 µM) and 9 µg/mL (≈ 17.8 µM), respectively.

Regarding `Cc1ccc(Oc2ccc(NC(=O)NC(=O)c3c(F)cccc3F)cc2Cl)c(C)c1` [Comparative Example J, reference compound], the LC50 with Heliothis zea (setting [1]) and with Heliothis virescens was > 100 µg/mL each time.

Take `Cc1cc(NC(=O)NC(=O)c2ccccc2Cl)c(C)c(Cl)c1Oc1ccc(Br)cc1-c1ccccc1` [Example 24]: the mortality at 500 ppm with Mexican bean beetle fell in the range of 0 to 30%; in the test on southern armyworm it was 71 to 100%.

As to `Cc1cc(NC(=O)NC(=O)c2ccccc2Cl)c(C)c(Cl)c1Oc1ccc(-c2ccccc2)cc1` [Example 10], the mortality at 500 ppm in the test on Mexican bean beetle fell in the range of 71 to 100%; in the test on southern armyworm it was 0 to 30%.

Turning to `Cc1cc(NC(=S)NC(=O)c2ccccc2Cl)c(C)c(Cl)c1Oc1ccc(-c2ccccc2)cc1` [Example 12], the mortality at 500 ppm in the test with Mexican bean beetle is 71 to 100%; with southern armyworm, 0 to 30%.
